Source: patent US7662838B2, “Use of a deoxynojirimycin derivative or a pharmaceutically salt thereof” (Genzyme Corporation, priority 2003, dated 2010)
Read-outs that look alike come from different tables or passages of the source. One block for each compound: values may come before it.

Columns and labels:
FVB and C57BL/6J mice = test: Tissue (glyco)sphingolipid levels in orally treated FVB and C57BL/6J mice (HPLC, TLC)
sucrase = target: T1, sucrase (Rattus norvegicus, UniProt P23739); test: In vitro sucrase activity, intestinal membrane preparation; format: biochemical
T1 construct: Membrane homogenates were prepared by extensive washing and homogenization; from tissue; host or cells: rat intestinal membrane homogenate
T1 sequence (P23739 1014-1841 limits assumed): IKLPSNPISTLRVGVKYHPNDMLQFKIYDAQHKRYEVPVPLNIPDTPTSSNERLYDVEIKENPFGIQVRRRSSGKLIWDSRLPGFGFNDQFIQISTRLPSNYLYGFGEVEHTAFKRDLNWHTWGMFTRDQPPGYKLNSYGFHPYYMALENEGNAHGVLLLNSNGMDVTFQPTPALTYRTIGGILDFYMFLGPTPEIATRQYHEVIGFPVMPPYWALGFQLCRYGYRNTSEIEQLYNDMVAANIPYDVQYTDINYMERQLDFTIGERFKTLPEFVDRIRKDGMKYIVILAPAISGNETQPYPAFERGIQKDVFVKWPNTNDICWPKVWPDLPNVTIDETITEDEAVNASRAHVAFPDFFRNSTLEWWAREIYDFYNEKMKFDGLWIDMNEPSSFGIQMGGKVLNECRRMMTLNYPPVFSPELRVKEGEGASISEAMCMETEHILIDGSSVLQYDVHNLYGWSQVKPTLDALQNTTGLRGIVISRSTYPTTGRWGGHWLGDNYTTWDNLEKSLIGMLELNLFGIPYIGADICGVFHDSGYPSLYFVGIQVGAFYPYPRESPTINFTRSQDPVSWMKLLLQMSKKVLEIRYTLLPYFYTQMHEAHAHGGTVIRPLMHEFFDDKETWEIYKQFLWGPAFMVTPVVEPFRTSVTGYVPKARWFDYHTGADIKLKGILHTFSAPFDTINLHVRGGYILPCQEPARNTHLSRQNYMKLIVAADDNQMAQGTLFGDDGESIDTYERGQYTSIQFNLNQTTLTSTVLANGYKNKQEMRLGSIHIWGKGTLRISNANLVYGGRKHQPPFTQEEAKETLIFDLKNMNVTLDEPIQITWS
T1 sequence (P23739 1-1013 partner limits assumed): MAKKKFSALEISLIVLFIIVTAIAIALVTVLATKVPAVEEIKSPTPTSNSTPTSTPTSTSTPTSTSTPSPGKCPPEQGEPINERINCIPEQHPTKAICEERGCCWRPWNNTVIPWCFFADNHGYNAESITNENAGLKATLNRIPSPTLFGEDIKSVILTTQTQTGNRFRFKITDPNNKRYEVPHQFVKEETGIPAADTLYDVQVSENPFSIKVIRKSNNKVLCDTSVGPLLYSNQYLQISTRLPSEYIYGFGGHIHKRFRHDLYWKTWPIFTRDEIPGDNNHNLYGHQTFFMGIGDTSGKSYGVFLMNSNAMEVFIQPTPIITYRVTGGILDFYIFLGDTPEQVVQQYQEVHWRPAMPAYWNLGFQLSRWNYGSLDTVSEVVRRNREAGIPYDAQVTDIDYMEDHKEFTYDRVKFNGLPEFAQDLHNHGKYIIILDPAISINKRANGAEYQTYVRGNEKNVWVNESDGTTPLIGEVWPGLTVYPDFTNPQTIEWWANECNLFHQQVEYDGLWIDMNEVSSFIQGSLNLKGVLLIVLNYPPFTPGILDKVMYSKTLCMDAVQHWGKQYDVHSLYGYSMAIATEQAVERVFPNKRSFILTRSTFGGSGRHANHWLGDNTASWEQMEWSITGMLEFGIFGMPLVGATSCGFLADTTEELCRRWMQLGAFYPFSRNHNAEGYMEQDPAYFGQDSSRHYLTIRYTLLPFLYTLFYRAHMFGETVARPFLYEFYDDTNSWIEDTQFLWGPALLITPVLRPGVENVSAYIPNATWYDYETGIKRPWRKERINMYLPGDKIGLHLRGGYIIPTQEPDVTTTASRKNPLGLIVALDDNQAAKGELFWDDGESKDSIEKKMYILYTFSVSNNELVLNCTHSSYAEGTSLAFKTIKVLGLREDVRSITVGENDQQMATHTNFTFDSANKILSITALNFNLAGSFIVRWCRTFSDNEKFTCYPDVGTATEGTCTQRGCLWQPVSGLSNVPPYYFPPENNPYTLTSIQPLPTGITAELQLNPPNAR

[1] = Plasma level and tissue penetration after oral dosing; format: in vivo, mice
[2] = Tolerability in animal studies; format: in vivo
[3] = test system: cultured adipocytes and muscle cells; test: Insulin signaling in cultured adipocytes and muscle cells (GLUT4, deoxyglucose uptake); format: cell-based
From the text: Initial experiments already confirmed this effect.

[4] = test system: C57BL/6J mice (ob-/-, db-/-, +/+); test: Oral treatment of obese, diabetes and normal C57BL/6J mice: glucose and water intake; format: in vivo
Experimental: Plasma glucose, water intake and food intake were monitored.
Mice (obese-lep^ob (C57B1/6)laHsd-Lep^ob); diabetes-lepr^db (C57B1/6KsOlaHsd—Lepr^db); wildtype (C57B1/6J OlaHsd) and wild type FVB (FVB/NHanHsd) were obtained from Harlan Nederland. Animals were fed with AM-II diet with or without N-(5-adamantane-1-yl-methoxy-pentyl)deoxynojirimycin (Hope Farms Netherlands). Mice were kept in groups of five in each cage. Water consumption and food intake were determined three times weekly per cage. Body weight of individual animals was determined three times weekly. Glucose in plasma was determined with the GOD-PAP method (Merck), and glucose in urine was determined using […] test strips (Roche).

[5] = Pharmacological features (bioavailability, metabolism); conditions: in vivo
surface GM3 = test: Surface GM3 expression by FACS after 3 days exposure of cells; format: cell-based; conditions: 72 h, cells exposed for 3 days, read-out: IC50 value for surface GM3 reduction
debranching enzyme = target: T2, debranching enzyme (Homo sapiens, UniProt P35573); test: Debranching enzyme activity, glucose release from limit dextrin, erythrocyte homogenate; format: biochemical; conditions: read-out: IC50 value for inhibition of Debranching enzyme
T2 construct: As enzyme source erythrocytes are used since they contain no other enzymes that can degrade glycogen or limit dextrin; from tissue; host or cells: erythrocyte homogenate
T2 sequence (P35573 whole entry): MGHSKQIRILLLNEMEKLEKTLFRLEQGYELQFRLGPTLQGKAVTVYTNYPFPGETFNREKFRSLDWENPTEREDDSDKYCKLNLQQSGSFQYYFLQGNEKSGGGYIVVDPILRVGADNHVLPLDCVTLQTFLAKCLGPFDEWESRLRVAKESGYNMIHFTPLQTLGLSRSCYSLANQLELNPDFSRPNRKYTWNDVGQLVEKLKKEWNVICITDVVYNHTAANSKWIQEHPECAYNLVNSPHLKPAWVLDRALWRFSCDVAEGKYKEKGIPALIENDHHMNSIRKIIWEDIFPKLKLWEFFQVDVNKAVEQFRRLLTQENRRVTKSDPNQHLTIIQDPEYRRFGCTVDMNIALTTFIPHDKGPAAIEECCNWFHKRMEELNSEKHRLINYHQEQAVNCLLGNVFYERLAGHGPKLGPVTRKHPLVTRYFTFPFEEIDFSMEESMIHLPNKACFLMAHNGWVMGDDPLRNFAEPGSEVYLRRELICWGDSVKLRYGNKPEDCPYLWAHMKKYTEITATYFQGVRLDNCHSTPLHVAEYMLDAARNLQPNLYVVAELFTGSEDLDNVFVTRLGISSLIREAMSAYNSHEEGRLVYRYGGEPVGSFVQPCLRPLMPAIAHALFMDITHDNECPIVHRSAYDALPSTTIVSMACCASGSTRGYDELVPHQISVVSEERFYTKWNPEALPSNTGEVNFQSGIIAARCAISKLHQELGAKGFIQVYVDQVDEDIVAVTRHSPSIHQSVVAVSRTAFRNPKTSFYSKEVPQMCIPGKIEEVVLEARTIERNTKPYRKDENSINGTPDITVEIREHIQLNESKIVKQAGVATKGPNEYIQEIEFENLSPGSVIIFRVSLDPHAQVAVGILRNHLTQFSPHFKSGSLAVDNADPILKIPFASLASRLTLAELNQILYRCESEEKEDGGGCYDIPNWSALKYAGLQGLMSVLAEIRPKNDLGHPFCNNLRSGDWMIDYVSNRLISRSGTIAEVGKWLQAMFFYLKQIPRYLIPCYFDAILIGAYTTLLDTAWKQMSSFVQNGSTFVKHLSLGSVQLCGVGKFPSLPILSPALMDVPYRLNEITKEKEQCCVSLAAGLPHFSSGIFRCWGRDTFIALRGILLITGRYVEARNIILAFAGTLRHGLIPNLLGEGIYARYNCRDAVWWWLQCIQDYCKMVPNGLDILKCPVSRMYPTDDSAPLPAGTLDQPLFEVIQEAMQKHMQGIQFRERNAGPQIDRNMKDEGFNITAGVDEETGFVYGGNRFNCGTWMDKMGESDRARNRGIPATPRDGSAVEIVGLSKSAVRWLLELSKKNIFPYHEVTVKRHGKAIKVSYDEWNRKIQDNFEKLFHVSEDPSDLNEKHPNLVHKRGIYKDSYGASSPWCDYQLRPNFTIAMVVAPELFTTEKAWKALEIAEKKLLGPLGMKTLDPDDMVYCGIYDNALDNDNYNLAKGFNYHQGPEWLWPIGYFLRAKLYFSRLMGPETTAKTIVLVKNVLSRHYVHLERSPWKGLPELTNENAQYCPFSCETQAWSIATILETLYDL

lactase = target: T3, lactase (Rattus norvegicus, UniProt Q02401); test: In vitro lactase activity, intestinal membrane preparation; format: biochemical; conditions: rat intestinal membranes; read-out: IC50 value for inhibition of Lactase
T3 construct: Membrane homogenates were prepared by extensive washing and homogenization; from tissue; host or cells: rat intestinal membrane homogenate
T3 sequence (Q02401 868-1928): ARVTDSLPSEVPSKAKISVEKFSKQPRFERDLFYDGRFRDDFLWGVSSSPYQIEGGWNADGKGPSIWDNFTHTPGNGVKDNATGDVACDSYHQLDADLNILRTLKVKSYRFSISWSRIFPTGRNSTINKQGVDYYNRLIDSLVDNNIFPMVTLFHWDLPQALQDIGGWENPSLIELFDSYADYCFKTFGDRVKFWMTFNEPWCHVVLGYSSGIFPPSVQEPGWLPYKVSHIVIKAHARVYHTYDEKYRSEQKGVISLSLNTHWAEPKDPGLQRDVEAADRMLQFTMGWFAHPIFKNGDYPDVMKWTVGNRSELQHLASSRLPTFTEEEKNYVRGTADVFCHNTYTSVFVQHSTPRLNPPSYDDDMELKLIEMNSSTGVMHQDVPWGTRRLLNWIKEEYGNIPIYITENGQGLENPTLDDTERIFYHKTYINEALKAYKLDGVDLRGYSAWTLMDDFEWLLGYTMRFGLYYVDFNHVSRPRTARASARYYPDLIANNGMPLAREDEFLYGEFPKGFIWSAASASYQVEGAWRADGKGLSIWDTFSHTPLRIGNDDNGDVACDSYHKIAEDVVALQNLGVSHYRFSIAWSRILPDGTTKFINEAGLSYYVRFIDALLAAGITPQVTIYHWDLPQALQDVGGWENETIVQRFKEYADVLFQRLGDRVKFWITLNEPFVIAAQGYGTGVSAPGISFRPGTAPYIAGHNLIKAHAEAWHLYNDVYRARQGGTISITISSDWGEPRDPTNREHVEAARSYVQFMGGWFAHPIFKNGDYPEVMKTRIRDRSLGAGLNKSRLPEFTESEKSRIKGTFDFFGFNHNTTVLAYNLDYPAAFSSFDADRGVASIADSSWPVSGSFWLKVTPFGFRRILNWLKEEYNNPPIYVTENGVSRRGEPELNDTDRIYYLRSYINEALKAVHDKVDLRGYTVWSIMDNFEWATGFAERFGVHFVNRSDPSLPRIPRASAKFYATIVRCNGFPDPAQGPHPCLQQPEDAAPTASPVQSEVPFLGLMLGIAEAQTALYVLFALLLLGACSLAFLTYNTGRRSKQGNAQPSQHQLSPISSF

[6] = many individuals; cited from earlier work
[7] = target: glycan trimming α-glucosidase; conditions: cited from earlier work
[8] = intestinal sucrase, read-out: IC50 value for sucrase
[9] = obese and diabetes mice, administration by food, dose-dependent
[10] = rat intestinal membranes, read-out: IC50 value for inhibition of Sucrase

IC50 (sucrase; [8]): 4500 µM | concentration at 4 weeks ([1]; mouse, plasma, oral, 4 weeks 100 mg/kg orally, enzymatic method, read-out: plasma levels): ~1000 nM | brain penetration ([1]; oral administration): poorly penetrates in the brain | metabolism [5]: lack of metabolism | oral bioavailability ([5]; po): good oral bioavailability | IC50 (surface GM3): ~0.25 µM | IC50 (debranching enzyme): > 500 µM | IC50 (lactase): 18000 µM
Compound: OC[C@@H]1[C@@H](O)[C@H](O)[C@@H](O)CN1CCCCCOCC12CC3CC(CC(C3)C1)C2 [AMP-DNM, N-(5-adamantane-1-yl-methoxy-pentyl)deoxynojirimycin]
brain gangliosides or sulfatide (FVB and C57BL/6J mice; TLC, brain): No changes | liver GM3 (FVB and C57BL/6J mice; TLC, liver, 2 wks 100 mg/kg): marked reduction | muscle GM3 (FVB and C57BL/6J mice; TLC, muscle): reduction | brain galactosylceramide concentration (FVB and C57BL/6J mice; brain, 100 mg/kg oral): No changes | liver glucosylceramide reduced by (FVB and C57BL/6J mice; liver, 100 mg/kg oral): 80% | ceramide concentration (FVB and C57BL/6J mice; liver, muscle and brain, 100 mg/kg oral): No changes | muscle glucosylceramide reduced by (FVB and C57BL/6J mice; muscle, 100 mg/kg oral): 50% | overt pathology in animal studies [2]: does not result in any overt pathology | tolerability in animal studies [2]: well tolerated | surface expression of GLUT4 ([3]; adipocytes): increased | deoxyglucose uptake ([3]; cultured adipocytes and muscle cells): increased | urinary glucose ([4]; after 2 weeks treatment, particularly ob-/ob- mice at highest dose): major reduction | blood glucose ([4]; normal mice): small reduction | blood glucose [4, 9]: reductions | water intake [4, 9]: reductions

Compound: C[C@H]1O[C@H](O[C@H]2[C@H](O)[C@@H](O)[C@@H](O[C@H]3[C@H](O)[C@@H](O)C(O)O[C@@H]3CO)O[C@@H]2CO)[C@H](O)[C@@H](O)[C@@H]1N[C@H]1C=C(CO)[C@@H](O)[C@H](O)[C@H]1O (some centres unmarked) [Acarbose]
tolerability (intestinal complaints) [6]: not very well tolerated

IC50 (sucrase; [10]): 500 µM
Compound: CCCCN1C[C@H](O)[C@@H](O)[C@H](O)[C@H]1CO [N-butyl-deoxynojirimycin]
Ki glycan trimming α-glucosidase in vitro [7]: sub-μM

IC50 (sucrase; [8]): < 5000 µM | IC50 (sucrase; [10]): 100 µM
Compound: OCCN1C[C@H](O)[C@@H](O)[C@H](O)[C@H]1CO [N-hydroxyethyl-deoxynojirimycin]
tolerability (intestinal complaints) [6]: not very well tolerated
